Like-named read-outs stand apart in the source and are kept apart here.

Drawing on patent US5545736A, “6-thiono-5,6-dihydro-dibenz[B,E] azepin-11-one-11-oximes” (Bayer Aktiengesellschaft, priority 1991, dated 1996), this text covers IC50 for 4 compounds.

The test system of the assay is HIV. Description: HIV infection in cell culture (syncytia formation; PBLs or H9 cells). The format is cell-based. The conditions noted are these: read-out: IC50 (concentration at which 50% of the virus-induced syncytia were suppressed). The protocol: The HIV test was carried out with slight modifications according to the method of Pauwels et al. [cf. Journal of Virological Methods 20, (1988), 309-321].
Normal human blood lymphocytes (PBLs) were concentrated by means of Ficoll-Hypaque and stimulated with phytohaemagglutinin (90 μg/ml) and interleukin-2 (40 U/ml) in RPMI 1640 and 20% foetal calf serum. For infection with the infectious HIV, PBLs were pelleted and the cell pellet was then suspended in 1 ml of HIV virus adsorption solution and incubated for 1 hour at 37° C.
Alternatively, HIV-susceptible H9 cells were employed instead of normal human blood lymphocytes for testing the antiviral effects of the compounds according to the invention.
The virus adsorption solution was centrifuged and the infected cell pellet was taken up in growth medium so that a concentration of 1×10^5 cells per ml was established. The cells infected in this way were pipetted into the wells of 96-well microtiter plates to give 1×10^4 cells/well.
The first vertical row of the microtiter plate contained only growth medium and cells which had not been infected, but otherwise treated exactly as described above (cell control). The second vertical row of the microtiter plate contained only HIV-infected cells (virus control) in growth medium. The other wells contained the compounds according to the invention in differing concentrations, starting from the wells of the 3rd vertical row of the microtiter plate, from which the test substances were diluted 2^10 times in 2-fold steps.
The test batches were incubated at 37° C. until, in the untreated virus control, the syncytia formation typical of HIV occurred (between day 3 and 6 after infection), which was then microscopically assessed. Under these test conditions, in the untreated virus control about 20-50 syncytia resulted, while the untreated cell control contained no syncytia.
The IC50 values were determined as the concentration of the treated and infected cells at which 50% (about 10-20 syncytia) of the virus-induced syncytia were suppressed by treatment with the compound according to the invention.

Setting [1] is: Human immunodeficiency virus 1, 72 h, HIV-infected PBLs or alternatively H9 cells, 37° C., read between day 3 and 6 after infection.

In the case of `CON=c1c2cc(Cl)ccc2[nH]c(=S)c2ccccc12` [Example 4], under setting [1], the IC50 turned out to be 380 nM.

As to `CN(C)CCON=c1c2cc(Cl)ccc2[nH]c(=S)c2ccccc12` [Example 2], under setting [1], the IC50 stood at 1500 nM. Same read-out and setting: next, `S=c1[nH]c2ccc(Cl)cc2c(=NOCCN2CCOCC2)c2ccccc12` [Example 3]: 380 nM. Consider `Cc1ccnc2c1NC(=O)c1cccnc1N2C1CC1` [BIRG 587, reference compound], for which, where the note is “Human immunodeficiency virus 1, H9, 72 h”, the IC50 was 90 nM.
